Measurements as given in publication PMC8326665, “Branebrutinib (BMS-986195), a Bruton’s Tyrosine Kinase Inhibitor, Resensitizes P-Glycoprotein-Overexpressing Multidrug-Resistant Cancer Cells to Chemotherapeutic Agents” (Frontiers in Cell and Developmental Biology, 2021).

Biological target: T1, P-glycoprotein (P-gp/ABCB1) (Homo sapiens, UniProt P08183)
T1 construct: full-length human P-gp; MDR1 baculovirus in High-Five insect cell total membranes (ATPase); transfected MDR19-HEK293 cells (calcein efflux)
T1 sequence (P08183 whole entry): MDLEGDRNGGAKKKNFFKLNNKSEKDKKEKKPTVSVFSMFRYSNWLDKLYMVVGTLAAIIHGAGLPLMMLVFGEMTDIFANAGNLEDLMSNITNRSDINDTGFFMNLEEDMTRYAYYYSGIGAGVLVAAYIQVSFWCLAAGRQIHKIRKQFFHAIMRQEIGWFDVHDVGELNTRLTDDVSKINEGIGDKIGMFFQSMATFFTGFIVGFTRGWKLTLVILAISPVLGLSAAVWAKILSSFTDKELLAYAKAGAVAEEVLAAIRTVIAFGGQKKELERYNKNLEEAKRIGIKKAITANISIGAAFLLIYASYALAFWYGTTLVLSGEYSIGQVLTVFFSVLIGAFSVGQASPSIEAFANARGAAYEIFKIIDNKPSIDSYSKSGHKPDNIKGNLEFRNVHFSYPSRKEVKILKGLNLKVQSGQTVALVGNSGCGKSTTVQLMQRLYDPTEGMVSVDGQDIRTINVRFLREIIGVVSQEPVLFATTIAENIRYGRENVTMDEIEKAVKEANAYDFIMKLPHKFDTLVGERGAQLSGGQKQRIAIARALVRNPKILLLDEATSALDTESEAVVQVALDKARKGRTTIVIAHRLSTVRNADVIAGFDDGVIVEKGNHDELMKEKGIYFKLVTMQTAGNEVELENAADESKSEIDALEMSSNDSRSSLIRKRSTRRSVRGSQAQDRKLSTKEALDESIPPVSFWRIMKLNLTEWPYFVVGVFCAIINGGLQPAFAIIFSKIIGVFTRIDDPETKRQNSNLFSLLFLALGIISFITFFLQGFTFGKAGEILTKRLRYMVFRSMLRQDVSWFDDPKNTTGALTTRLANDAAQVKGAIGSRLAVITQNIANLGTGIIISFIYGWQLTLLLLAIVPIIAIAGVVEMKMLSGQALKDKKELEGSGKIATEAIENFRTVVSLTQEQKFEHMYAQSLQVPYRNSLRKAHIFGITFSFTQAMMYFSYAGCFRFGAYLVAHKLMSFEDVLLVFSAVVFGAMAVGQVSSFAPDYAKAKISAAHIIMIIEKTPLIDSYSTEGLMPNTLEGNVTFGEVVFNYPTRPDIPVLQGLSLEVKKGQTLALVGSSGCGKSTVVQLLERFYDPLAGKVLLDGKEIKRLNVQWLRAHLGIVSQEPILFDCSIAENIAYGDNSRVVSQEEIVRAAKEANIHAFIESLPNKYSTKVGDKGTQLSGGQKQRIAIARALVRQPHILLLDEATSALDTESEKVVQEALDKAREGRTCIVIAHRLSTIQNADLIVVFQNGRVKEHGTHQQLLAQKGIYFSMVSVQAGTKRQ
Experiment: vanadate-sensitive ATPase activity, endpoint inorganic phosphate assay, insect cell membranes
Assay type: biochemical
From the text: vanadate-sensitive ATPase activity, endpoint inorganic phosphate assay, insect cell membranes on P-glycoprotein (P-gp/ABCB1) | half maximal effective concentration (EC50) value

CC#CC(=O)N[C@H]1CCCN(c2c(F)cc(C(N)=O)c3[nH]c(C)c(C)c23)C1 [branebrutinib]
EC50: ~4.5 µM
